Experimental data from patent publication US20260216197A1, “WRN HELICASE INHIBITOR” (SUZHOU PUHE BIOPHARMA CO., LTD., priority 2022, published 2026).
Like-named read-outs stand apart in the source and are kept apart here. Each block holds one molecule with its values, some of them ahead of it.

Columns and labels:
[1] = test system: MSS colorectal cancer HT-29 cell line; experiment: 2D anti-proliferative activity, MSS HT-29 cells (CTG, 5 days); type: cell-based
Method: The molecules of the present disclosure were tested for their anti-proliferative activity against MSS tumor cells.
(§1) The MSS HT-29 colorectal cancer cells were cultured in McCoy's 5A medium containing 10% FBS and 1% penicillin-streptomycin in a 37° C., 5% CO2 constant temperature incubator. A 40 μL cell suspension was added to each well of a 384-well microplate. Using Echo, 40 nL of compounds at different concentrations was dispensed into each well, followed by incubation in a 37° C., 5% CO2 constant temperature incubator for 5 days. Then, 40 μL of CTG solution (Promega, Cat No. G7573) was added to each well, and the plate was incubated in the dark in a 37° C., 5% CO2 constant temperature incubator for 30 minutes. Luminescence was measured using an Envision multi-function microplate reader (Perkin Elmer, Model: Envision 2104). The luminescent signal was proportional to the amount of ATP in the system, and the amount of ATP directly represented the number of living cells in the system.

[2] = Liver microsome stability test; type: in vitro ADME; settings: human liver microsomes 0.5 mg/mL, compound 1 μM, NADPH 1 mM, 60 minutes; for microsomal CLint at 1 μM: read-out: Human Clint μL/min/mg Protein
Method: The liver microsome stability test of the compounds is as follows:
The compounds of the present disclosure were subjected to a liver microsome stability test. The compounds to be tested were co-incubated with liver microsomes of different species with or without the addition of NADPH. The final concentration of the compounds to be tested in the test system was 1 μM, the final concentration of NADPH was 1 mM, and the final concentration of liver microsomes was 0.5 mg/mL.

[3] = molecular target: WRN helicase (Homo sapiens, UniProt Q14191); experiment: WRN helicase hydrolysis/unwinding of double-stranded DNA (fluorescence); type: biochemical
Method: The activity of the molecules of the present disclosure on the hydrolysis of double-stranded PP-6TR DNA by WRN helicase was tested.
The working solution and buffer were prepared, and the test compound was dissolved in DMSO followed by a4-fold dilution (with a final concentration of 10 μM as the starting concentration). Then, 0.2 μL of the test compound solution was added to a384-well plate, followed by 10 μL of (2×) WRN enzyme solution. The mixture was incubated in the dark for 30 minutes, after which 10 μL of substrate detection solution containing double-stranded DNA was added to initiate the reaction (DNA length: 19 bp, labeled with TAMRA at the 3′ end and BHQ2 at the 5′ end). The mixture was incubated at room temperature for 60 minutes. The inhibitory activity (IC50) against the WRN enzyme was calculated based on the fluorescence change (Ex530/Em590) between the blank group (DMSO) and the compound group.

[4] = test system: MSI-H colorectal cancer SW48 cell line; experiment: 2D anti-proliferative activity, MSI-H SW48 cells (CTG, 5 days); type: cell-based; settings: for IC50: 5 days; for inhibition at 38.15 pM: 0.038146973 nM; for inhibition at 0.000152588 µM: 0.152587891 nM; for inhibition at 0.000610352 µM: 0.610351563 nM; for inhibition at 0.00244141 µM: 2.44140625 nM; for inhibition at 0.00976562 µM: 9.765625 nM; for inhibition at 0.0390625 µM: 39.0625 nM; for inhibition at 0.15625 µM: 156.25 nM; for inhibition at 0.625 µM: 625 nM; for inhibition at […]: 2500 nM; for inhibition at 10 µM: 10000 nM
Method: The molecules of the present disclosure were tested for their anti-proliferative activity against MSI-H tumor cells.
The proliferation of tumor cells with microsatellite instability MSI-H is sensitive to WRN inhibitors, while the proliferation of microsatellite stable (MSS) tumor cells is insensitive to WRN inhibitors. By testing the activities of the two, it is shown that the molecules of the present disclosure have an inhibitory and synthetic lethal effect on WRN at the cellular level.
as §1, with “MSI-unstable SW48” for “MSS HT-29”, “RPMI 1640” for “McCoy's 5A”

[5] = Pharmacokinetic evaluation in mice; type: in vivo, CD1 female mice; settings: for AUC(0-t): read-out: AUC0-24
Method: CD1 female mice were used as test animals and the drug was administered orally/intravenously (oral dosage: 10 mg/kg, intravenous dosage: 2 mg/kg).
Assay protocol: The oral group consisted of 3 mice per group (vehicle: 10% Hβ-CD-pH7.4), and the intravenous group consisted of 3 mice per group. […] The blood concentrations in plasma after oral and intravenous administration of mice were determined by LC/MS/MS, respectively.

[6] = Homo sapiens, read-out: Average value/ Inhibition rate
[7] = Homo sapiens, read-out: Test 1/ Inhibition rate
[8] = Homo sapiens, read-out: Test 2/ Inhibition rate
[9] = female, CD1, mouse, plasma, IV 2 mg/kg
[10] = female, CD1, mouse, plasma, PO 10 mg/kg

WRN helicase, sequence (Q14191 whole entry): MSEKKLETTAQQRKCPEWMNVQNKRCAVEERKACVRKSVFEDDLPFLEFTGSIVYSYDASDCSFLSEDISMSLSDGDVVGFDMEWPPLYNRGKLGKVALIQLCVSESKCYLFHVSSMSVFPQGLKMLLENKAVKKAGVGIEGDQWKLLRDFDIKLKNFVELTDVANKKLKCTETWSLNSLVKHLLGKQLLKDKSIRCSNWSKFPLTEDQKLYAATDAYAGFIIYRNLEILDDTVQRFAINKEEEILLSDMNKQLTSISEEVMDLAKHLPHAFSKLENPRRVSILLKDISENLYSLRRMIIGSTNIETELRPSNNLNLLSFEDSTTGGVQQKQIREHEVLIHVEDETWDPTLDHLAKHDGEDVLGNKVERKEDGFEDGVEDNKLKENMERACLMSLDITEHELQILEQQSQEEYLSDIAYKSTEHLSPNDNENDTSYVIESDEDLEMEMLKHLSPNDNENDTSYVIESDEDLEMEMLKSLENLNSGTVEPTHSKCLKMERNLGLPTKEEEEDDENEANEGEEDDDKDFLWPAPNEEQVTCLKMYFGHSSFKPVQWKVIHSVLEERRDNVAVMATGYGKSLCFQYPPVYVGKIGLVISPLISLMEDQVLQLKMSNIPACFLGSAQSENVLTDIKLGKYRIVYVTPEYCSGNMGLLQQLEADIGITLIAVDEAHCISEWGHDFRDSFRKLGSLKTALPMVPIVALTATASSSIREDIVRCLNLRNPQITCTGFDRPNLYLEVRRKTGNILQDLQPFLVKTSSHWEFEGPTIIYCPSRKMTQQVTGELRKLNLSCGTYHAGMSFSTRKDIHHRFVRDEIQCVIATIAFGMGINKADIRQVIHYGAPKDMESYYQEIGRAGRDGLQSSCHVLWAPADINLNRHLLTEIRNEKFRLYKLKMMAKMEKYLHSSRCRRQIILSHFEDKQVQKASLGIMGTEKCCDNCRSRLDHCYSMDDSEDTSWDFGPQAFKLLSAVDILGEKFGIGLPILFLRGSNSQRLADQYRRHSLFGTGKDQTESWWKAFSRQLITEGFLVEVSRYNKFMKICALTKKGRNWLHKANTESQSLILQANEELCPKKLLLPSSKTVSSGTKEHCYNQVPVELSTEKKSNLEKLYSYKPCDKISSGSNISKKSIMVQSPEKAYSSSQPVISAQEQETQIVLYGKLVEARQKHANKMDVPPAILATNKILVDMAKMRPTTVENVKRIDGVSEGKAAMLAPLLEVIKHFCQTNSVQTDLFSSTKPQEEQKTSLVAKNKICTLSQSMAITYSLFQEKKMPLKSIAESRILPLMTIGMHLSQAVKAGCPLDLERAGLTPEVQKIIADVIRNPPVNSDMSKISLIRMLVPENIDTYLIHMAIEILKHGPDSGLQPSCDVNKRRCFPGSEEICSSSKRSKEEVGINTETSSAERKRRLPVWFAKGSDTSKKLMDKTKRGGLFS

IC50 ([1]; Homo sapiens, 120 h): 3500 nM
CLint scaled at 1 μM [2]: 1.18 L/h/kg
microsomal CLint at 1 μM [2]: 15.7 µL/min/mg
IC50 [3]: 1.4 nM
IC50 ([4]; Homo sapiens, 120 h): 131 nM
Compound: CCc1c(N2CCN(C(=O)c3ncccc3O)CC2)c(=O)n2nc(C3=CCOCC3)nc2n1CC(=O)Nc1ccc(C(F)(F)F)c2ccsc12 [Compound H2]

IC50 [1]: > 10000 nM
Human Clint μL/min/mg Protein [2]: 2.2 μL/min/mg Protein
Human Clint/(mL/min/kg) [2]: 2.7 mL/min/kg
IC50 [3]: 1.6 nM
IC50 [4]: 216 nM
Compound: CCc1c(N2CCN(C(=O)c3ncnc(C)c3O)CC2)c(=O)n2nc(C3=CCOCC3)nc2n1CC(=O)Nc1ccc(C(F)(F)F)c2c1OCC2 [Compound H3]

IC50 ([1]; Homo sapiens, 120 h): 1480 nM
IC50 [3]: 1.3 nM
IC50 ([4]; Homo sapiens, 120 h): 124 nM
Compound: CCc1c(N2CCN(C(=O)c3ncccc3O)CC2)c(=O)n2nc(C3=CCC(OC)CC3)nc2n1CC(=O)Nc1ccc(C(F)(F)F)c2ccsc12 (stereo not drawn) [Compound H8]

IC50 ([1]; Homo sapiens, 120 h): > 10000 nM
CLint scaled at 1 μM [2]: 0.78 L/h/kg
microsomal CLint at 1 μM [2]: 10.3 µL/min/mg
IC50 [3]: 1.7 nM
IC50 ([4]; Homo sapiens, 120 h): 193 nM
Compound: CCc1c(N2CCN(C(=O)c3ncccc3O)CC2)c(=O)n2nc(N3CCOCC3)nc2n1CC(=O)Nc1ccc(C(F)(F)F)c2ccsc12 [Compound H9]

IC50 ([1]; Homo sapiens, 120 h): 7410 nM
IC50 [3]: 2.4 nM
IC50 ([4]; Homo sapiens, 120 h): 1140 nM
Compound: CCc1c(N2CCN(C(=O)c3ncccc3O)CC2)c(=O)n2nc(N3CCC[C@H](F)C3)nc2n1CC(=O)Nc1ccc(C(F)(F)F)c2ccsc12 [Compound H11]

IC50 ([1]; Homo sapiens, 120 h): > 10000 nM
CLint scaled at 1 μM [2]: 0.474 L/h/kg
microsomal CLint at 1 μM [2]: 6.3 µL/min/mg
IC50 [3]: 1.2 nM
IC50 ([4]; Homo sapiens, 120 h): 28 nM
F ([5]; PO 10 mg/kg vs IV 2 mg/kg): 24%
clearance [5, 9]: 2.57 L/h/kg
AUC(0-t) [5, 9]: 0.722 µg·h/mL
C0 ([5]; female, CD1, mouse, plasma, IV 2 mg/kg, read-out: C0): 2.53 µg/mL
half-life [5, 10]: 66 min
AUC(0-t) [5, 10]: 0.943 µg·h/mL
Cmax ([5]; female, CD1, mouse, plasma, PO 10 mg/kg, read-out: Cmax): 0.551 µg/mL
Tmax ([5]; female, CD1, mouse, plasma, PO 10 mg/kg, read-out: Tmax): 30 min
Compound: CCc1c(N2CCN(C(=O)c3ncnc(C)c3O)CC2)c(=O)n2nc(C3=CCOCC3)nc2n1CC(=O)Nc1ccc(C(F)(F)F)c2sccc12 [Compound H13]
inhibitory activity on SW48 cells ([4]; 39 nM): high inhibitory activity
inhibition at 38.15 pM [4, 6]: -1.31%
inhibition at 38.15 pM [4, 7]: -1.51%
inhibition at 38.15 pM [4, 8]: -1.1%
inhibition at 0.000152588 µM [4, 6]: 0.853%
inhibition at 0.000152588 µM [4, 7]: 2.48%
inhibition at 0.000152588 µM [4, 8]: -0.775%
inhibition at 0.000610352 µM [4, 6]: -1.43%
inhibition at 0.000610352 µM [4, 7]: -3.56%
inhibition at 0.000610352 µM [4, 8]: 0.706%
inhibition at 0.00244141 µM [4, 6]: -3.17%
inhibition at 0.00244141 µM [4, 7]: 0.0291%
inhibition at 0.00244141 µM [4, 8]: -6.36%
inhibition at 0.00976562 µM [4, 6]: 0.332%
inhibition at 0.00976562 µM [4, 7]: -3.9%
inhibition at 0.00976562 µM [4, 8]: 4.57%
inhibition at 0.0390625 µM [4, 6]: 76.4%
inhibition at 0.0390625 µM [4, 7]: 76.2%
inhibition at 0.0390625 µM [4, 8]: 76.6%
inhibition at 0.15625 µM [4, 6]: 97.6%
inhibition at 0.15625 µM [4, 7]: 98.6%
inhibition at 0.15625 µM [4, 8]: 96.6%
inhibition at 0.625 µM [4, 6]: 99.4%
inhibition at 0.625 µM [4, 7]: 99.6%
inhibition at 0.625 µM [4, 8]: 99.2%
inhibition at […] [4, 6]: 99.6%
inhibition at […] [4, 7]: 99.7%
inhibition at […] [4, 8]: 99.5%
inhibition at 10 µM [4, 6]: 101%
inhibition at 10 µM [4, 7]: 103%
inhibition at 10 µM [4, 8]: 100%

IC50 ([1]; Homo sapiens, 120 h): > 10000 nM
IC50 [3]: 3.9 nM
IC50 ([4]; Homo sapiens, 120 h): 2200 nM
Compound: CCc1c(N2CCN(C(=O)c3ncnc(C)c3O)CC2)c(=O)n2nc(C3=CCOCC3)nc2n1CC(=O)Nc1ccc(C(F)(F)F)c2ncsc12 [Compound H14]

IC50 ([1]; Homo sapiens, 120 h): > 10000 nM
CLint scaled at 1 μM [2]: 0.0438 L/h/kg
microsomal CLint at 1 μM [2]: 0.58 µL/min/mg
IC50 [3]: 0.9 nM
IC50 ([4]; Homo sapiens, 120 h): 125 nM
Compound: CCc1c(N2CCN(C(=O)c3nccc(Cl)c3O)CC2)c(=O)n2nc(C3=CCOCC3)nc2n1CC(=O)Nc1ccc(C(F)(F)F)c2ccsc12 [Compound H19]

IC50 ([1]; Homo sapiens, 120 h): > 10000 nM
CLint scaled at 1 μM [2]: 1.55 L/h/kg
microsomal CLint at 1 μM [2]: 20.6 µL/min/mg
IC50 [3]: 1 nM
IC50 ([4]; Homo sapiens, 120 h): 75 nM
Compound: CCc1c(N2CCN(C(=O)c3nccc(F)c3O)CC2)c(=O)n2nc(C3=CCOCC3)nc2n1CC(=O)Nc1ccc(C(F)(F)F)c2ccsc12 [Compound H20]
